Results published in patent US20170311607A1, “SYNERGISTIC BACILLUS THURINGIENSIS SUBSP. AIZAWAI, BACILLUS THURINGIENSIS SUBSP. KURSTAKI AND FLUBENDIAMIDE MIXTURES FOR DIAMONDBACK MOTH, SUGARCANE BORER, SOYBEAN LOOPER, AND CORN EARWORM” (Valent BioSciences LLC, priority 2016, published 2017).

Columns and labels:
sugarcane borer larvae = test: Leaf dip efficacy and synergy test, sugarcane borer larvae; format: in vivo; conditions: Diatraea saccharalis, foliar, Bta/Btk 0.8125 ppm, flubendiamide 2.15 ppm, alone or in mixture
Text: (§1) The following examples were used to determine the synergy of Bacillus thuringiensis subsp. aizawai, Bacillus thuringiensis subsp. kurstaki and flubendiamide when controlling diamondback moth, beet armyworm, sugarcane borer, soybean looper, corn earworm, cabbage looper, and southwestern corn borer. Sympatico™ emulsifiable suspension (available from Valent BioSciences LLC) was used as the source of Bacillus thuringiensis subsp. aizawai and Bacillus thuringiensis kurstaki. Sympatico™ contains about a 1:0.67 ratio of Bacillus thuringiensis subsp. kurstaki fermentation solids, spores and toxins to Bacillus thuringiensis subsp. aizawai fermentation solids, spores and toxins. Belt® was used as the source of flubendiamide. The present invention is not limited to the commercial products used in the examples. In each example below, the studies were conducted as follows.
(§2) For these tests, standardized laboratory leaf dip methods were used to inoculate plant material with treatment(s). Dry, treated leaves were placed into Petri dishes (100×25 mm) containing filter paper wetted with 500 μl of distilled H2O (“dH2O”). Each dish was then infested with between 5 and 10 larvae, dependent on species. Efficacy ratings were taken at specified intervals. Synergy ratings were calculated for each test. […]

cabbage looper larvae = test: Leaf dip efficacy and synergy test, cabbage looper larvae; format: in vivo; conditions: Trichoplusia ni, foliar, Bta/Btk 0.8125 ppm, flubendiamide 0.49 ppm, alone or in mixture
Text: as §1, §2

soybean looper larvae = test: Leaf dip efficacy and synergy test, soybean looper larvae; format: in vivo, Chrysodeixis includens; conditions: foliar, Bta/Btk 0.26 ppm, flubendiamide 3.9 ppm, alone or in mixture
Text: as §1, §2

diamondback moth larvae = test: Leaf dip efficacy and synergy test, diamondback moth larvae; format: in vivo; conditions: Plutella xylostella, foliar, Bta/Btk 0.8125 ppm, flubendiamide 0.215 ppm, alone or in mixture
Text: as §1, with “In each example below, the studies were conducted as follows.” left out
For these tests, standardized laboratory leaf dip methods were used to inoculate plant material with treatment(s). […] Synergy ratings were calculated for each test. […]
In order to determine synergy, rates below normal field rate ranges must be used. If normal field rate ranges are used, all of the larvae would die (combining a lethal or near lethal dose of Bacillus thuringiensis subsp. aizawai and Bacillus thuringiensis subsp. kurstaki with a lethal dose of flubendiamide would most likely lead to larvae death) in every treatment and synergy would not be able to be determined. […]

[1] = tested on: southwestern corn borer larvae; test: Leaf dip efficacy and synergy test, southwestern corn borer larvae; format: in vivo; conditions: foliar, Bta/Btk 0.8125 ppm, flubendiamide 0.39 ppm, alone or in mixture
Text: as §1, §2

beet armyworm larvae = test: Leaf dip efficacy and synergy test, beet armyworm larvae; format: in vivo; conditions: Spodoptera exigua, foliar, Bta/Btk 0.8125 ppm, flubendiamide 0.49 ppm, alone or in mixture
Text: as §1, §2

corn earworm larvae = test: Leaf dip efficacy and synergy test, corn earworm larvae; format: in vivo; conditions: Helicoverpa zea, foliar, Bta/Btk 2.6 ppm, flubendiamide 0.975 ppm, alone or in mixture
Text: as §1, §2

SMILES: Cc1cc(C(F)(C(F)(F)F)C(F)(F)F)ccc1NC(=O)c1cccc(I)c1C(=O)NC(C)(C)CS(C)(=O)=O [Flubendiamide, 3-iodo-N′-(2-mesyl-1,1-dimethylethyl)-N-{4-[1,2,2,2-tetrafluoro-1-(trifluoromethyl)ethyl]-o-tolyl}phthalamide]
- Emax at 2.15 ppm (sugarcane borer larvae; 24 h after treatment): 24%
- Emax at 2.15 ppm (sugarcane borer larvae; 48 h after treatment): 33%
- Emax at 0.49 ppm (cabbage looper larvae; 24 h after treatment): 9%
- Emax at 0.49 ppm (cabbage looper larvae; 48 h after treatment): 65%
- Emax at 3.9 ppm (soybean looper larvae; 24 h after treatment): 13%
- Emax at 3.9 ppm (soybean looper larvae; 48 h after treatment): 38%
- Emax at 0.215 ppm (diamondback moth larvae; 24 h after treatment): 4%
- Emax at 0.215 ppm (diamondback moth larvae; 48 h after treatment): 42%
- Emax at 0.39 ppm ([1]; 24 h after treatment): 49%
- Emax at 0.39 ppm ([1]; 48 h after treatment): 51%
- Emax at 0.49 ppm (beet armyworm larvae; 24 h after treatment): 10%
- Emax at 0.49 ppm (beet armyworm larvae; 48 h after treatment): 23%
- Emax at 0.975 ppm (corn earworm larvae; 24 h after treatment): 33%
- Emax at 0.975 ppm (corn earworm larvae; 48 h after treatment): 33%
